Assay results as given in ChEMBL document CHEMBL1201862, “PubChem BioAssay data set” (2004).
Calls of active or inactive are those of the source.

Key:
[1] = target: T1, Eukaryotic translation initiation factor 2-alpha kinase 3 (Homo sapiens, UniProt Q9NZJ5); assay: Counterscreen assay for PERK inhibitors: Dose response cell-based high throughput screening assay to measure inhibition of PERK at 6 hours. [Related pubchem assays: 1522, 1416 ]; assay type: functional
T1 sequence (Q9NZJ5 whole entry): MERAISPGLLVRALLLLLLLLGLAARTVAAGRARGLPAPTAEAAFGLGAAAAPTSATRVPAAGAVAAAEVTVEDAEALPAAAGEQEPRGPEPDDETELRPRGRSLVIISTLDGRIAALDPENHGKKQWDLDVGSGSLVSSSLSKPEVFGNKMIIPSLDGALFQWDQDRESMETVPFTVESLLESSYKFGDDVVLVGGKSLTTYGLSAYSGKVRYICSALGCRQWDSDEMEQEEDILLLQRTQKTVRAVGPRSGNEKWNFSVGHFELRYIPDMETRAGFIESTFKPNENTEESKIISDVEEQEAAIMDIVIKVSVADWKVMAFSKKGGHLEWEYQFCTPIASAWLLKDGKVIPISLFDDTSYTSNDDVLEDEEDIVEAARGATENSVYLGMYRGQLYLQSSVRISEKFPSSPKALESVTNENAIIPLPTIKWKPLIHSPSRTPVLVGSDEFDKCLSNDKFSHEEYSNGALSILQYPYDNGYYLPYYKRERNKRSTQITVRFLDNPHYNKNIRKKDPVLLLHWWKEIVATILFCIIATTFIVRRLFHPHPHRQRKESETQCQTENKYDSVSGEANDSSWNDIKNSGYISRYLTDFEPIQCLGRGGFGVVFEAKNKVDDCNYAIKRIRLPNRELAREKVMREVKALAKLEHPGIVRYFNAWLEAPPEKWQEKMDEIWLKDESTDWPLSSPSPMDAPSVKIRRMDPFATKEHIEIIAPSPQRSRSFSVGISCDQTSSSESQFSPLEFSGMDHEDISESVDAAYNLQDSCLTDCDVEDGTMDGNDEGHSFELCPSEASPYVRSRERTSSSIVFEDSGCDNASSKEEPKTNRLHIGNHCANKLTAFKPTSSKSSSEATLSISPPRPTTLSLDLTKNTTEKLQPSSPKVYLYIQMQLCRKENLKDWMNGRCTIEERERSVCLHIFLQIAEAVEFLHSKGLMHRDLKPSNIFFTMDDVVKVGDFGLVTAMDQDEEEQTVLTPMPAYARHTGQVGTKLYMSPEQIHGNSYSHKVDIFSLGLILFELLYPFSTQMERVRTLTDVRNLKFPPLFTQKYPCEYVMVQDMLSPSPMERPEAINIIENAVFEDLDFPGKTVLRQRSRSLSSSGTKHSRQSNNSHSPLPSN

[2] = target: T1, Eukaryotic translation initiation factor 2-alpha kinase 3; assay: Dose response cell-based high-throughput screening assay to measure PERK inhibition. [Related pubchem assays: 1416 ]; assay type: functional
[3] = toxicity toward HepG2 liver cells – cell-based, plate reader, cherry-pick, antagonist series, cytotoxicity control, dose response (AID 743416); assay type: functional
[4] = target: Neurotensin receptor type 1 (Homo sapiens, UniProt P30989); assay type: functional;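 further: Image-based confirmatory dose-response assay measuring agonist activity at NTR1; NTR1-expressing U2OS osteosarcoma cells imaged for beta-arrestin GFP spot formation; agonist potency where compounds increase beta-arrestin recruitment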
Neurotensin receptor type 1, sequence (P30989 whole entry): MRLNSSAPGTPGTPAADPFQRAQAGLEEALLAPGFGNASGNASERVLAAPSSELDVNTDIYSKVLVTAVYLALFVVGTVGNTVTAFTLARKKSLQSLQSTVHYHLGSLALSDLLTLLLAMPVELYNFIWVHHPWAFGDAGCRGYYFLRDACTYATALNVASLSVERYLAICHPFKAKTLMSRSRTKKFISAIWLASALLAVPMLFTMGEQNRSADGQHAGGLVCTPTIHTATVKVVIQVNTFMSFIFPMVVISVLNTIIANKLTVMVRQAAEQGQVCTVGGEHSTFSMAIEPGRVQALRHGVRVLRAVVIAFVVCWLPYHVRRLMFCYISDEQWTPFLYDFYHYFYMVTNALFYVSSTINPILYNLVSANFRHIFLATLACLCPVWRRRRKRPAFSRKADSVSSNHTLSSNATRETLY

[5] = blockers of bursicon-stimulated LGR2 cAMP reporter – cell-based, HEK293, CRE-luciferase reporter, cherry pick, set 2, dose response (AID 743343); assay type: functional;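 further: transfected cells were stimulated with diluted bursicon conditioned medium after compound addition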
[6] = blockade of melanocortin 4 receptor signaling – cell-based, plate reader, cherry pick, counter-screen for LGR2 antagonist project, dose response (AID 743444); assay type: functional;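 further: transfected HEK 293 cells stimulated with alpha-MSH peptide; potency of inhibitors of the alpha-MSH evoked signal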
[7] = microbe, parasite or virus in culture; assay type: functional; conditions: Mycobacterium tuberculosis
[8] = target: Melanin-concentrating hormone receptor 1 (Homo sapiens, UniProt Q99705); assay: Fluorescence-based counterscreen for antagonists of the G-protein coupled receptor 7 (GPR7): cell-based high throughput dose response assay to identify antagonists of the melanin-concentrating hormone receptor 1 (MCHR1).; assay type: functional
Melanin-concentrating hormone receptor 1, sequence (Q99705 whole entry): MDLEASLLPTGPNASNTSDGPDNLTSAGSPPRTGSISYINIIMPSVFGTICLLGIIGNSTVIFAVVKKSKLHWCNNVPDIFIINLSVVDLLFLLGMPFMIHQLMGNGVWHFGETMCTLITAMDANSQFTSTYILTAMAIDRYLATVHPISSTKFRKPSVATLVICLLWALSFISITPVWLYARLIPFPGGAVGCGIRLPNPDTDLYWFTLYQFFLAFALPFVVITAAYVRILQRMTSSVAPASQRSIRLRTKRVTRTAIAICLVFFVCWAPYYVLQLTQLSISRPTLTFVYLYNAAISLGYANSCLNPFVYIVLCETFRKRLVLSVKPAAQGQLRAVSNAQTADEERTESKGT

[9] = target: DNA dC->dU-editing enzyme APOBEC-3A (Homo sapiens, UniProt P31941); assay: A3A deaminase inhibition for selectivity – biochemical, dose response (AID 504722); assay type: functional
DNA dC->dU-editing enzyme APOBEC-3A, sequence (P31941 whole entry): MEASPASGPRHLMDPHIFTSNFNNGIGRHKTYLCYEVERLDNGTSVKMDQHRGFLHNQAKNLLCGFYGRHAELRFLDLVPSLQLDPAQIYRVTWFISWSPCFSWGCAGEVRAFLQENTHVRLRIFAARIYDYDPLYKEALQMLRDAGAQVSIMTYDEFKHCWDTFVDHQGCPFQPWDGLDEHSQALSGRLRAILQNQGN

[10] = target: DNA dC->dU-editing enzyme APOBEC-3G (Homo sapiens, UniProt Q9HC16); assay: Dose Response confirmation of small molecule APOBEC3G DNA Deaminase Inhibitors via a fluorescence-based single-stranded DNA deaminase assay. [Related pubchem assays (depositor defined):AID493012, AID493028]; assay type: functional
DNA dC->dU-editing enzyme APOBEC-3G, sequence (Q9HC16 whole entry): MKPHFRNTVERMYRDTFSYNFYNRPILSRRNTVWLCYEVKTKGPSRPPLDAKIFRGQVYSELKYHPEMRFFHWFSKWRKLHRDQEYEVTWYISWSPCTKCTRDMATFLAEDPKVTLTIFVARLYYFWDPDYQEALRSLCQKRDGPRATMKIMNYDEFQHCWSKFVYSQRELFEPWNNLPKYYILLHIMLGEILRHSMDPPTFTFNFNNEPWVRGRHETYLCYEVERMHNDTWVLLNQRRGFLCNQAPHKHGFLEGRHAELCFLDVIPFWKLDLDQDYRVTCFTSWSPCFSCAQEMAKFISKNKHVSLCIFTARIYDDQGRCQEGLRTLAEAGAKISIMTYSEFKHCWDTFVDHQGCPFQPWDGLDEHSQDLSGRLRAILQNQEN

[11] = target: T2, Heat shock factor protein 1 (Mus musculus, UniProt P38532); assay: enhancement of HSF1-driven luciferase signal – cell-based, NIH3T3, luminescence, dose retest, confirmation (AID 435004); assay type: functional;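 further: stress induced by proteasome inhibitor MG132 added 30 min after compound; luciferase reporter driven by HSF1 response element in NIH3T3 cells; actives raise luminescence as potentiators of the MG132 stress response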
T2 sequence (P38532 whole entry): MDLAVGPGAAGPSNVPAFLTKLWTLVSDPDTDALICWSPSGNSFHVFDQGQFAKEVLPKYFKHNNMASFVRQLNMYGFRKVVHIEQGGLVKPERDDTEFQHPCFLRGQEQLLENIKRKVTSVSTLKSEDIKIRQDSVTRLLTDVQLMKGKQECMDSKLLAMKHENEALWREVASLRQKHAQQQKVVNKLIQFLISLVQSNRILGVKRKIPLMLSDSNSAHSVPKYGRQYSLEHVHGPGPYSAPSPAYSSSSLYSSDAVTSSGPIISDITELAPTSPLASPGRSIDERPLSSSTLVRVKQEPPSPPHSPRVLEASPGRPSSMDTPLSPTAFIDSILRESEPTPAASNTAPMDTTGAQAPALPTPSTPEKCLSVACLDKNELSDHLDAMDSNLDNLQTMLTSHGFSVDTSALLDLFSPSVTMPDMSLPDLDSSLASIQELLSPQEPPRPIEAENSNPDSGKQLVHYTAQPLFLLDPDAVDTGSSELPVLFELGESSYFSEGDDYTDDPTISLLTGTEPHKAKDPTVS

[12] = target: Protein-tyrosine kinase 2-beta (Homo sapiens, UniProt Q14289);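 further: potency of inhibitors of PYK2 kinase phosphorylation of poly-GT substrate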
Protein-tyrosine kinase 2-beta, sequence (Q14289 whole entry): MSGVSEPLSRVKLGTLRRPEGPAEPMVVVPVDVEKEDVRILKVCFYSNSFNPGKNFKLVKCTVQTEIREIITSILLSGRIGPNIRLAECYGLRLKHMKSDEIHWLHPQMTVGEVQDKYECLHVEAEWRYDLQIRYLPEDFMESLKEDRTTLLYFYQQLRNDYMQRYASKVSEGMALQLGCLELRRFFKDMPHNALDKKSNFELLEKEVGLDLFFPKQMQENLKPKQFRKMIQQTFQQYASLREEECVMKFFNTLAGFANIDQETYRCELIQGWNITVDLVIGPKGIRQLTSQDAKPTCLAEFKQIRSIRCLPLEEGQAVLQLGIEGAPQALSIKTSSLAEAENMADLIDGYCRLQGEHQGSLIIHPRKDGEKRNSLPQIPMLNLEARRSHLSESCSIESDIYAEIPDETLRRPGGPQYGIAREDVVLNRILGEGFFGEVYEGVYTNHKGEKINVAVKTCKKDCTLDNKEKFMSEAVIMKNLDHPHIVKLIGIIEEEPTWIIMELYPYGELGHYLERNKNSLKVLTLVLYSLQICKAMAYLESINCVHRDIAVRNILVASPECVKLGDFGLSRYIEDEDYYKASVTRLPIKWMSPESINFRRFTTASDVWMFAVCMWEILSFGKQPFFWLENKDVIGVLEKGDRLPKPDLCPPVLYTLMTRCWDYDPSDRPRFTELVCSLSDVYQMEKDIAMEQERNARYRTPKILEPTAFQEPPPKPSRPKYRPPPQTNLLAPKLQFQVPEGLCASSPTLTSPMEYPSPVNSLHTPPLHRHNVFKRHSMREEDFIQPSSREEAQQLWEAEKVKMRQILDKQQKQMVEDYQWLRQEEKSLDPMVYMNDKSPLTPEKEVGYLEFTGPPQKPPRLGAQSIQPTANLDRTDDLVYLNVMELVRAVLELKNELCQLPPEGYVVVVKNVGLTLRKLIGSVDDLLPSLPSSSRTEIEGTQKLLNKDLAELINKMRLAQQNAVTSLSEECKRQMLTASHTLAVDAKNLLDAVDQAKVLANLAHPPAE

[13] = target: Cyclin-dependent kinase 5/CDK5 activator 1 (Homo sapiens, UniProt Q00535); assay: blockade of human CDK5 activity – biochemical, cherry-picked samples, set 2, dose response (AID 504545)
Cyclin-dependent kinase 5/CDK5 activator 1, sequence (Q00535 whole entry): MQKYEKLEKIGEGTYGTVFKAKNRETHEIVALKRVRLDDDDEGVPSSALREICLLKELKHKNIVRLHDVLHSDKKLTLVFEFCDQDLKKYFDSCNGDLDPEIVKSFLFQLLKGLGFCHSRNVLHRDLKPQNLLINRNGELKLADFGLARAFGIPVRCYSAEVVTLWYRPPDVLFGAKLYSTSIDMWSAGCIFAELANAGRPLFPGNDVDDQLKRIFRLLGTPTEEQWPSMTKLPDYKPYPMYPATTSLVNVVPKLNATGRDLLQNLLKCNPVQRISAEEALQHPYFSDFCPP
Cyclin-dependent kinase 5/CDK5 activator 1, sequence (Q15078 whole entry, further chain): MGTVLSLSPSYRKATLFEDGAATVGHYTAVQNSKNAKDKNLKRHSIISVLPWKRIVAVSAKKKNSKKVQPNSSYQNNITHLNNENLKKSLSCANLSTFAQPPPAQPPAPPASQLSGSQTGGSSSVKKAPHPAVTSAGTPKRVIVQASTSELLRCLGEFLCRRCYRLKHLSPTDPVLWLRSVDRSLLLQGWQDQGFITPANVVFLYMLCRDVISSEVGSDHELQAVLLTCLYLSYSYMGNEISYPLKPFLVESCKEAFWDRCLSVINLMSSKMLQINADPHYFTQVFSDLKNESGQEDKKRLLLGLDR

HEK293 = assay: membrane integrity loss in HEK cells – cell-based, fluorescence, cytotoxicity control for IDE activator project, dose response (AID 588440); assay type: functional, Homo sapiens; conditions: hek293;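 further: cytotoxicity by LDH release measuring loss of membrane integrity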
ORF 73 = ORF 73 (Human herpesvirus 8, UniProt O40947); assay: KSHV LANA DNA-binding disruption – biochemical, fluorescence polarization, cherry-picked samples, dose response (AID 504725); parameters: species or system Human gammaherpesvirus 8;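 further: fluorescence polarization of a labeled DNA duplex reporting LANA DNA binding; potency is for inhibitors that block LANA binding to the DNA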
ORF 73, sequence (O40947 whole entry): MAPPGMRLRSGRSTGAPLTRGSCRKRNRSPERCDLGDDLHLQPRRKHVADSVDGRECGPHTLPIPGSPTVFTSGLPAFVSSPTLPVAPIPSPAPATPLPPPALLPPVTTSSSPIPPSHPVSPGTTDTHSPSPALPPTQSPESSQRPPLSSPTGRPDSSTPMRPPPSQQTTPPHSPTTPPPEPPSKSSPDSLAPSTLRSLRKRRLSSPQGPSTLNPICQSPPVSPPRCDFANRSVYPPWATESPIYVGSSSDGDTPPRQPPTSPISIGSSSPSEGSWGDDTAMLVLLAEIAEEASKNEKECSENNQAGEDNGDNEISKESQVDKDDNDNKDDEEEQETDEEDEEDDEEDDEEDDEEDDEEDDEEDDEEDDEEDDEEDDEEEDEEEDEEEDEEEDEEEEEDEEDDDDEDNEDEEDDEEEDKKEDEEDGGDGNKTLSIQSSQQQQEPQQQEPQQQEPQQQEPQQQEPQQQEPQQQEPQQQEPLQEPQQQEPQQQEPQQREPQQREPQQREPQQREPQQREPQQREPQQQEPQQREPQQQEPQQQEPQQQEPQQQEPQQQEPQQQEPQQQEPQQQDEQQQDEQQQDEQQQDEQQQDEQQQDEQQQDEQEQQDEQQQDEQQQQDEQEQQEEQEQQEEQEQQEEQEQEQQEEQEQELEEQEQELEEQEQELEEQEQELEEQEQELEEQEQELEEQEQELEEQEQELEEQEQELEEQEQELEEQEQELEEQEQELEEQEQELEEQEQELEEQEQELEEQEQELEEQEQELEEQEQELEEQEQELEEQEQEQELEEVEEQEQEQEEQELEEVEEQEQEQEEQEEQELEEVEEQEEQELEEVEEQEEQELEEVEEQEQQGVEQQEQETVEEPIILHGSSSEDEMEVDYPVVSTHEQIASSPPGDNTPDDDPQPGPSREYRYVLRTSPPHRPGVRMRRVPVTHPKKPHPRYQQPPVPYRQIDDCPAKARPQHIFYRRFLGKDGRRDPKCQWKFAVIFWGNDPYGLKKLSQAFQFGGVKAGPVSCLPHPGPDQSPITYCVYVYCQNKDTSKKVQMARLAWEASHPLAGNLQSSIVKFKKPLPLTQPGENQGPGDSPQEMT

HeLa = assay: viability loss in HeLa cells – cell-based, 24 h, cherry-picked samples, cytotoxicity control, dose response (AID 504726); assay type: functional; conditions: Homo sapiens;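 further: potency for cytotoxicity as loss of luminescence signal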
Insulin-degrading enzyme [14] = target: T3, Insulin-degrading enzyme (Homo sapiens, UniProt P14735); assay: cellular IDE activation of Abeta substrate cleavage – fluorescence polarization, HEK cells, dose response (AID 588439); assay type: functional, cell-based
T3 sequence (P14735 whole entry): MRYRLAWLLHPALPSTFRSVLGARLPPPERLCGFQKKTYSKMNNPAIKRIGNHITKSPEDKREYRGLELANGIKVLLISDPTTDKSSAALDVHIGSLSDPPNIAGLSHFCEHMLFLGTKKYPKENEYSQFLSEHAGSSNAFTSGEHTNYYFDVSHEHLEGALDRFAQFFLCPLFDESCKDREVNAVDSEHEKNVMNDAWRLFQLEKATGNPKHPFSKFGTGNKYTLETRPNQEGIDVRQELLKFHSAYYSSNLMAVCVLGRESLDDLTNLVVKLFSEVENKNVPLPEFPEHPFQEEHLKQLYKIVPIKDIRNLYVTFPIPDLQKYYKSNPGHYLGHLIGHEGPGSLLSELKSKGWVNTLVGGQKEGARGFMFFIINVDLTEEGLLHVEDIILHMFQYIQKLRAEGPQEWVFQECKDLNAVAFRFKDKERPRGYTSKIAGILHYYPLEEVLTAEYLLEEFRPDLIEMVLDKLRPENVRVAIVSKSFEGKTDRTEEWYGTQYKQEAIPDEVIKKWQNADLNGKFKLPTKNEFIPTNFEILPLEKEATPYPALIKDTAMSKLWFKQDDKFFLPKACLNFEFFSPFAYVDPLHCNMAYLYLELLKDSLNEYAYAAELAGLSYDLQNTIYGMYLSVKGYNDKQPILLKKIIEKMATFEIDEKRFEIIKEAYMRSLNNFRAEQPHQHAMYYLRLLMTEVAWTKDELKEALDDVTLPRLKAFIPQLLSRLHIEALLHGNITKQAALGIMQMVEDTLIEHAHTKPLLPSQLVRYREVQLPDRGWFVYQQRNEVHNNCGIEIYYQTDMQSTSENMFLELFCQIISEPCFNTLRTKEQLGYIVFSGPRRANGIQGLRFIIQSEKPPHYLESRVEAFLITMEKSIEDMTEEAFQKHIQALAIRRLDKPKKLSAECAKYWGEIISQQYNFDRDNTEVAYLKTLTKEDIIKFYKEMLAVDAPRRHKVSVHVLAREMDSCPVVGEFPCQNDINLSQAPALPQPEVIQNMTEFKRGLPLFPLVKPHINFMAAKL

Insulin-degrading enzyme [15] = target: T3, Insulin-degrading enzyme; assay: recombinant IDE activation, cell-free – biochemical, fluorescence polarization, counter-screen for IDE activator project, dose response (AID 588681)
[16] = viability loss in HeLa cells – cytotoxicity control for MgcRacGAP inhibitor project, dose response (AID 624300); assay type: functional
[17] = target: T4, Rac GTPase-activating protein 1 (Homo sapiens, UniProt Q9H0H5); assay: blockers of MgcRacGAP-driven Rac1 GTP hydrolysis – biochemical, ADP Hunter fluorescence, primary and confirmatory, confirmation (AID 624330); assay type: functional
T4 sequence (Q9H0H5 whole entry): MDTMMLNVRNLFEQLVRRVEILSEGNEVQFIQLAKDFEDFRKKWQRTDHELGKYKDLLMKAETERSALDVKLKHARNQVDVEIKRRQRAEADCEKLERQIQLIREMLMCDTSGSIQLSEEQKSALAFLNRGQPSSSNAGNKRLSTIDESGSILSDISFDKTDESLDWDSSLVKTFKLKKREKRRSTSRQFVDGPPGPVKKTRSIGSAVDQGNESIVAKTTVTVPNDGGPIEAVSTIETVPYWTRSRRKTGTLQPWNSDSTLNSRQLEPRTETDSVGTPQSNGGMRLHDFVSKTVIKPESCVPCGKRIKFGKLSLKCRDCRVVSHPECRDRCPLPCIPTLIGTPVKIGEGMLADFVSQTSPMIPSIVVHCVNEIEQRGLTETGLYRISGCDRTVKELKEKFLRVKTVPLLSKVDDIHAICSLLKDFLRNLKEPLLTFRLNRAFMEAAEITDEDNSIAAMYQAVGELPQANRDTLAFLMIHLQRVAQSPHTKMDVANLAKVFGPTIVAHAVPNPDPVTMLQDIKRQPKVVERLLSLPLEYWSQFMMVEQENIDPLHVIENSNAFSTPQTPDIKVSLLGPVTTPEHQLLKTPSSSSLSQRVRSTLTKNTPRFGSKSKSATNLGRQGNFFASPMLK

Cc1cc(C)c(NC(=O)NC(=O)C(Cl)(Cl)Cl)c(C)c1
EC50 [1]: > 55.7 µM (not active)
EC50 [2]: > 55.7 µM (not active)

COC(=O)c1ccc(NC(=O)CSc2nc3ccc(N4C(=O)C5C6C=CC(C6)C5C4=O)cc3s2)cc1 (stereo unspecified)
AC50 [3]: > 52 µM (inactive)
EC50 [4]: > 40 µM (inactive)
AC50 [5]: 8.11 µM (active)
AC50 [6]: 7.79 µM (active)
CC50 [7]: > 40 µM (active)

CCOC(=O)C(C)On1c(-c2ccccc2)nc2ccc([N+](=O)[O-])cc21 (stereo unspecified)
IC50 [8]: 15.9 µM (not active)

Sc1nccn1-c1ccc(Cl)cc1
IC50 [9]: > 100 µM (inactive)
IC50 [10]: 16.8 µM (active)

COc1cc(/C=N/Nc2nc(-c3ccc(S(=O)(=O)N(C)C)cc3)cs2)ccc1O
EC50 [4]: 17.6 µM (active)

O=C1Nc2ccccc2/C1=C/c1c[nH]cn1
EC50 [11]: 17.5 µM (active)
IC50 [12]: 8.78 µM (active)
AC50 [13]: 0.268 µM (active)

C[n+]1c2cc(N)ccc2cc2ccc(N)cc21 [EUFLAVINE]
IC50 (HEK293): > 89.2 µM (inactive)
AC50 (ORF 73): 0.415 µM (active)
AC50 (HeLa): 14.7 µM (active)
EC50 (Insulin-degrading enzyme [14]): > 54.7 µM (inactive)
EC50 (Insulin-degrading enzyme [15]): > 54.7 µM (inactive)
CC50 [16]: 11.6 µM (active)
IC50 [17]: 78.3 µM (active)
